Test results: US10800792B2, “Inhibitors of Bruton's tyrosine kinase and method of their use” (JANSSEN PHARMACEUTICA NV, priority 2015, dated 2020)

What follows are molecules tested against unphosphorylated-BTK kinase domain (UP-BTK), GST-tagged human BTK (389-659aa) (Homo sapiens (Human), UniProt Q06187) (assay: BTK kinase Lanthascreen binding assay). Settings: Lanthascreen tracer competition, 60 minutes incubation; pIC50 = negative log of the IC50 in molar.
Method in brief: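 A fluorescent tracer is bound to unphosphorylated BTK; test compound is added to compete it off; the Lanthascreen signal is read and IC50 is fitted, then reported as its negative log in molar.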

Chain of unphosphorylated-BTK kinase domain (UP-BTK), GST-tagged human BTK (389-659aa) (Q06187 389-659): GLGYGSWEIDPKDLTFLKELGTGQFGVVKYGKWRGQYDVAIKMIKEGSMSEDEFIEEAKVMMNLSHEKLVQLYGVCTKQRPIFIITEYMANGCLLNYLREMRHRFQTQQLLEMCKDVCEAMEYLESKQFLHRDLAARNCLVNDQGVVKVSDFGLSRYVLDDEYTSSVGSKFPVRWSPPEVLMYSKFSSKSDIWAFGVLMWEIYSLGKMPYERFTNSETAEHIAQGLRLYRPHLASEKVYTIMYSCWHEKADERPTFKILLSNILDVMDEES

SMILES | BTK_I_binding pIC50
C=CC(=O)N1CCC[C@@H](NC(=O)c2sc3nccc4c3c2NC(=O)N4c2ccc(Oc3cccnc3C)cc2C)C1 [Example 773, (R)—N-(1-Acryloylpiperidin-3-yl)-5-(2-methyl-4-((2-methylpyridin-3-yl)oxy)phenyl)-4-oxo-4,5-dihydro-3H-1-thia-3,5,8-triazaacenaphthylene-2-carboxamide] | 7.4
Cc1c(Oc2ccccc2)cccc1N1C(=O)Nc2c(C(=O)N[C@@H]3CCCN(C(=O)/C(C#N)=C/C4CC4)C3)sc3nccc1c23 [Example 901, (R,E)-N-(1-(2-Cyano-3-cyclopropylacryloyl)piperidin-3-yl)-5-(2-methyl-3-phenoxyphenyl)-4-oxo-4,5-dihydro-3H-1-thia-3,5,8-triazaacenaphthylene-2-carboxamide] | 6.8
N#C/C(=C\C1CC1)C(=O)N1CCC[C@@H](NC(=O)c2sc3nccc4c3c2NC(=O)N4c2ccc(C(=O)Nc3cc(C(F)(F)F)ccn3)cc2F)C1 [Example 836, (R,E)-N-(1-(2-Cyano-3-cyclopropylacryloyl)piperidin-3-yl)-5-(2-fluoro-4-((4-(trifluoromethyl)pyridin-2-yl)carbamoyl)phenyl)-4-oxo-4,5-dihydro-3H-1-thia-3,5,8-triazaacenaphthylene-2-carboxamide] | 7.9
Cc1cc(Oc2ccccc2)ccc1N1C(=O)Nc2c(C(=O)N[C@@H]3CCN(C(=O)/C(C#N)=C/C(C)(C)C)C3)sc3nccc1c23 [Example 868, (R,E)-N-(1-(2-Cyano-4,4-dimethylpent-2-enoyl)pyrrolidin-3-yl)-5-(2-methyl-4-phenoxyphenyl)-4-oxo-4,5-dihydro-3H-1-thia-3,5,8-triazaacenaphthylene-2-carboxamide] | 7.3
C=CC(=O)N1CC[C@@H](NC(=O)c2sc3nccc4c3c2NC(=O)N4c2ccc(Oc3cccnn3)cc2C)C1 [Example 790, (R)—N-(1-Acryloylpyrrolidin-3-yl)-5-(2-methyl-4-(pyridazin-3-yloxy)phenyl)-4-oxo-4,5-dihydro-3H-1-thia-3,5,8-triazaacenaphthylene-2-carboxamide] | 6.7
Cc1cc(Oc2ccccc2)ccc1N1C(=O)Nc2c(C(=O)NC3CCCN(C(=O)/C(C#N)=C/C4CC4)C3)sc3nccc1c23 (stereo not drawn) [Example 877, (E)-N-(1-(2-Cyano-3-cyclopropylacryloyl)piperidin-3-yl)-5-(2-methyl-4-phenoxyphenyl)-4-oxo-4,5-dihydro-3H-1-thia-3,5,8-triazaacenaphthylene-2-carboxamide] | 7.1

Same assay, conditions: Lanthascreen tracer competition, 60 minutes incubation; pIC50 = negative log of the IC50 in molar; read-out: BTK_I_binding pIC50 (converted)

SMILES | IC50 [nM]
C=CC(=O)N1CC[C@@H](NC(=O)c2sc3nccc4c3c2NC(=O)N4c2ccc(Oc3ccccc3)cn2)C1 [Example 698, (R)—N-(1-Acryloylpyrrolidin-3-yl)-4-oxo-5-(5-phenoxypyridin-2-yl)-4,5-dihydro-3H-1-thia-3,5,8-triazaacenaphthylene-2-carboxamide] | 31.6

Same assay, conditions: pIC50 = negative log of the IC50 in molar; 60 minutes incubation, 50 nM Tracer 236

SMILES | BTK_I_binding pIC50
C=CC(=O)N1CC[C@@H](NC(=O)c2sc3nccc4c3c2NC(=O)N4c2c(C)cc(Oc3ccccc3)cc2F)C1 [Example 45, (R)—N-(1-Acryloylpyrrolidin-3-yl)-5-(2-fluoro-6-methyl-4-phenoxyphenyl)-4-oxo-4,5-dihydro-3H-1-thia-3,5,8-triazaacenaphthylene-2-carboxamide] | 7.1
Cc1c(N2C(=O)Nc3c(C(=O)N[C@@H]4CCCN(C(=O)CO)C4)sc4nccc2c34)ccc(Oc2ccccc2)c1F [Example 114, (R)-5-(3-Fluoro-2-methyl-4-phenoxyphenyl)-N-(1-(2-hydroxyacetyl)piperidin-3-yl)-4-oxo-4,5-dihydro-3H-1-thia-3,5,8-triazaacenaphthylene-2-carboxamide] | 7.3
Cc1cc(Oc2ccccc2)ccc1N1C(=O)Nc2c(C(=O)N[C@@H]3CCCN(C(=O)CCS(C)(=O)=O)C3)sc3nccc1c23 [Example 146, (R)-5-(2-Methyl-4-phenoxyphenyl)-N-(1-(3-(methylsulfonyl)propanoyl)piperidin-3-yl)-4-oxo-4,5-dihydro-3H-1-thia-3,5,8-triazaacenaphthylene-2-carboxamide] | 7.4
Cc1c(N2C(=O)Nc3c(C(=O)N[C@@H]4CCCN(C)C4)sc4nccc2c34)ccc(Oc2ccccc2)c1F [Example 59, (R)-5-(3-Fluoro-2-methyl-4-phenoxyphenyl)-N-(1-methylpiperidin-3-yl)-4-oxo-4,5-dihydro-3H-1-thia-3,5,8-triazaacenaphthylene-2-carboxamide] | 7.3
COC[C@H](OC)C(=O)N1CCC[C@@H](NC(=O)c2sc3nccc4c3c2NC(=O)N4c2ccc(Oc3ccccc3)cc2C)C1 [Example 142, N—((R)-1-((S)-2,3-Dimethoxypropanoyl)piperidin-3-yl)-5-(2-methyl-4-phenoxyphenyl)-4-oxo-4,5-dihydro-3H-1-thia-3,5,8-triazaacenaphthylene-2-carboxamide] | 7.2

Same assay, conditions: unphosphorylated-BTK kinase domain, 50 nM Tracer 236, 60 minutes; pIC50 = negative log of the IC50 in molar

BTK_I_binding pIC50 | SMILES
5.8 | Cc1cc(Oc2ccccc2)cc(C)c1N1C(=O)Nc2c(C(=O)N[C@@H]3CCCN(C)C3)sc3nccc1c23 [Example 317, (R)-5-(2,6-Dimethyl-4-phenoxyphenyl)-N-(1-methylpiperidin-3-yl)-4-oxo-4,5-dihydro-3H-1-thia-3,5,8-triazaacenaphthylene-2-carboxamide]
7.1 | Cc1cc(Oc2ccccc2)ccc1N1C(=O)Nc2c(C(=O)N[C@@H]3CCN(C(=O)CN(C)C)C3)sc3nccc1c23 [Example 384, (R)—N-(1-(2-(Dimethylamino)acetyl)pyrrolidin-3-yl)-5-(2-methyl-4-phenoxyphenyl)-4-oxo-4,5-dihydro-3H-1-thia-3,5,8-triazaacenaphthylene-2-carboxamide]
7.8 | Cc1cc(Oc2ccccc2)ccc1N1C(=O)Nc2c(C(=O)N[C@@H]3CCCN(C(=O)CCl)C3)sc3nccc1c23 [Example 396, (R)—N-(1-(2-Chloroacetyl)piperidin-3-yl)-5-(2-methyl-4-phenoxyphenyl)-4-oxo-4,5-dihydro-3H-1-thia-3,5,8-triazaacenaphthylene-2-carboxamide]
6.1 | Cc1cc(Oc2ccccc2)ccc1N1C(=O)Nc2c(C(=O)NCCC3CCCN3C)sc3nccc1c23 (stereo not drawn) [Example 298, 5-(2-Methyl-4-phenoxyphenyl)-N-(2-(1-methylpyrrolidin-2-yl)ethyl)-4-oxo-4,5-dihydro-3H-1-thia-3,5,8-triazaacenaphthylene-2-carboxamide]

Further lines, the molecule ahead of its results:

SMILES | BTK_I_binding pIC50
O=C(N[C@@H]1CCCNC1)c1sc2nccc3c2c1NC(=O)N3Cc1ccc(Oc2ccccc2)cc1 [Example 412, (R)-4-Oxo-5-(4-phenoxybenzyl)-N-(piperidin-3-yl)-4,5-dihydro-3H-1-thia-3,5,8-triazaacenaphthylene-2-carboxamide] | <5
C=CC(=O)N1CC[C@@H](NC(=O)c2sc3nccc4c3c2NC(=O)N4c2ccc(Oc3ccccc3)cc2)C1 [Example 443, (R)—N-(1-Acryloylpyrrolidin-3-yl)-4-oxo-5-(4-phenoxyphenyl)-4,5-dihydro-3H-1-thia-3,5,8-triazaacenaphthylene-2-carboxamide] | 7.7
O=C(N[C@@H]1CCCNC1)c1sc2nccc3c2c1NC(=O)N3c1ccc(-c2cccs2)cc1 [Example 407, (R)-4-Oxo-N-(piperidin-3-yl)-5-(4-(thiophen-2-yl)phenyl)-4,5-dihydro-3H-1-thia-3,5,8-triazaacenaphthylene-2-carboxamide] | 5.1
Cc1cc(Oc2ccccc2)ccc1N1C(=O)Nc2c(C(=O)N[C@@H]3CCCN(C(=O)/C(C#N)=C/C4(C)COC4)C3)sc3nccc1c23 (single isomer, unassigned) [Example 509, (R,EZ)—N-(1-(2-Cyano-3-(3-methyloxetan-3-yl)acryloyl)piperidin-3-yl)-5-(*S)-(2-methyl-4-phenoxyphenyl)-4-oxo-4,5-dihydro-3H-1-thia-3,5,8-triazaacenaphthylene-2-carboxamide] | 7.9
C=CC(=O)N1CCC[C@@H](NC(=O)c2sc3nccc4c3c2NC(=O)N4c2ccc(OC3CCC3)cc2C)C1 (single isomer, unassigned) [Example 501, (R)—N-(1-Acryloylpiperidin-3-yl)-5-(*S)-(4-cyclobutoxy-2-methylphenyl)-4-oxo-4,5-dihydro-3H-1-thia-3,5,8-triazaacenaphthylene-2-carboxamide] | 7.9

Same assay, conditions: unphosphorylated-BTK kinase domain, 50 nM Tracer 236, 60 minutes; pIC50 = negative log of the IC50 in molar; read-out: BTK_I_binding pIC50 (converted)

SMILES | IC50 [nM]
[2H]c1c([2H])c([2H])c(Oc2ccc(N3C(=O)Nc4c(C(=O)N[C@@H]5CCCN(C)C5)sc5nccc3c45)c(C)c2)c([2H])c1[2H] [Example 381, (R)-5-(2-Methyl-4-(2,3,4,5,6-pentadeuteriophenoxy)phenyl)-N-(1-methylpiperidin-3-yl)-4-oxo-4,5-dihydro-3H-1-thia-3,5,8-triazaacenaphthylene-2-carboxamide] | 79.4

Same assay, conditions: unphosphorylated-BTK kinase domain, 60 minutes incubation, 50 nM Tracer 236; pIC50 = negative log of the IC50 in molar

SMILES | BTK_I_binding pIC50
Cc1cc(Oc2ccccc2)ccc1N1C(=O)Nc2c(C(=O)N[C@H]3CCN(C(=O)/C(C#N)=C/C4CC4)C3)sc3nccc1c23 [Example 905, (S,E)-N-(1-(2-Cyano-3-cyclopropylacryloyl)pyrrolidin-3-yl)-5-(2-methyl-4-phenoxyphenyl)-4-oxo-4,5-dihydro-3H-1-thia-3,5,8-triazaacenaphthylene-2-carboxamide] | 6.7
C=CC(=O)N1CCC[C@@H](NC(=O)c2sc3nccc4c3c2NC(=O)N4c2cc(Cl)cc(Cl)c2)C1 [Example 941, (R)—N-(1-Acryloylpiperidin-3-yl)-5-(3,5-dichlorophenyl)-4-oxo-4,5-dihydro-3H-1-thia-3,5,8-triazaacenaphthylene-2-carboxamide] | 5.8
